Measured values from US20260199468A1, “COMPOSITIONS AND METHODS FOR TREATING CANCER USING CELL THERAPIES” (Orca Biosystems, Inc., priority 2023, published 2026).

What was measured:
CAR T cells [1] = experiment: In vitro CAR T cell cytotoxicity with tacrolimus; format: cell-based; settings: higher concentrations of tacrolimus, FIGS. 2-5
Protocol: (§1) CAR T cells used in the clinical study described in Example 1 were assessed according to standard in vitro methods; CD19 CAR expression was assessed (FIG. 2); CAR T cell cytotoxicity was assessed (FIG. 3); CD3 T cell proliferation was assessed (FIG. 4); and CAR T cell proliferation was assessed (FIG. 4).

CAR T cells [2] = experiment: In vitro CAR T cell proliferation with tacrolimus; format: cell-based; settings: higher concentrations of tacrolimus; in the presence or absence of tumor
Protocol: as §1

[3] = healthy subjects, oral administration; cited from earlier work

C=CC[C@@H]1/C=C(\C)C[C@H](C)C[C@H](OC)[C@H]2O[C@@](O)(C(=O)C(=O)N3CCCC[C@H]3C(=O)O[C@H](/C(C)=C/[C@@H]3CC[C@@H](O)[C@H](OC)C3)[C@H](C)[C@@H](O)CC1=O)[C@H](C)C[C@@H]2OC [tacrolimus]
CAR T cytotoxicity (CAR T cells [1]): reduced CAR T cytotoxicity
CAR T cytotoxicity (CAR T cells [1]; listed as Tacrolimus): Reduces CAR T Cytotoxicity in a Dose-Dependent Manner
CAR T cell proliferation (CAR T cells [2]): reduced CAR T cell proliferation
absolute bioavailability [3]: 18±5%
